Reference: BindingDB's records for doi:10.1016/j.chembiol.2007.06.006 (Northwestern University, 2007)

Biological target: T1, Progesterone receptor (Homo sapiens, UniProt P06401)
T1 sequence (P06401 whole entry): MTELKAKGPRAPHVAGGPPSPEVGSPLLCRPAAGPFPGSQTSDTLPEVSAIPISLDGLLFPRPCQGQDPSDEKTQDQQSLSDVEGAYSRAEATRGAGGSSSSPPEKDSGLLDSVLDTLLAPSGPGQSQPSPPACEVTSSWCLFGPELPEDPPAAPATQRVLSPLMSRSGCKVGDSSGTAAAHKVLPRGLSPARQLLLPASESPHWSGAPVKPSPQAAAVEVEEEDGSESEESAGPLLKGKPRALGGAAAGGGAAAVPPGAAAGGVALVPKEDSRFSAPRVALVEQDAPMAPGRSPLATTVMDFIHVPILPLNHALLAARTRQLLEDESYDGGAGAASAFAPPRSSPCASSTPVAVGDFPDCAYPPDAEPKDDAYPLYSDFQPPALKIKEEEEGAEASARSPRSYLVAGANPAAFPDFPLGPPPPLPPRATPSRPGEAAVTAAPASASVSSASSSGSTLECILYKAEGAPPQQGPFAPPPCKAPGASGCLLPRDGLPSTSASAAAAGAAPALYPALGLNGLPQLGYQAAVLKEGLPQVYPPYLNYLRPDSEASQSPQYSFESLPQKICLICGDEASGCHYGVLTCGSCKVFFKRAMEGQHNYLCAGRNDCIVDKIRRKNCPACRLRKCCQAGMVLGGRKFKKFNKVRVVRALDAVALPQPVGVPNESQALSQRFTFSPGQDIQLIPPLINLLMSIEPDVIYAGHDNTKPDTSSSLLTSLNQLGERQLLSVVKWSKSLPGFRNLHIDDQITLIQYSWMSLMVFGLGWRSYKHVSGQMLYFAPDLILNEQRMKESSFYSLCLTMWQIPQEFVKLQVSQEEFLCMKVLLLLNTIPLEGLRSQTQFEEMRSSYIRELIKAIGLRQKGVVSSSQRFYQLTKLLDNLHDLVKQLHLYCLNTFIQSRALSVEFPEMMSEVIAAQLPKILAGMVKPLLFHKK
Assay: Progesterone Receptor Binding Assay
Details: 22 °C

SMILES	IC50 [µM]
C[C@]12CCC(=O)C=C1CCC1C2CC[C@@]2(C)C1CC[C@@H]2C(=O)COCCCCCCNC(=S)Nc1ccc(CC2C[N+]34CC[N+]56CC[N+]78CC[N+]29CC(=O)[O][Gd-5]5739([O]C(=O)C6)([O]C(=O)C8)[O]C(=O)C4)cc1 (some centres not stated) [Steroid-Gd (III) conjugate, 3]	0.86
C[C@]12CCC(=O)C=C1CCC1C2CC[C@@]2(C)C1CC[C@@H]2C(=O)COCCCCCC[N+]12CC[N+]34CC[N+]56CC[N+]7(CC1)CC(=O)[O][Gd-4]2375([O]C(=O)C4)[O]C(=O)C6 (some centres not stated) [Steroid-Gd (III) conjugate, 2]	0.46
